From patent US20020115059A1, “Drug screening system” (priority 2000, published 2002)

Test system: mouse ES cells
Experiment: In vitro hepatic differentiation of ES cells (EBs): marker mRNA expression by RT-PCR / real-time PCR
Format: cell-based
Details: EBs on collagen coated dishes, factors of individual stages, Day 18
Experimental: Cell Culture—The ES cell lines R1 (129Sv strain), W9.5 (129Sv), and SEK1 null (established from W9.5) (Ganiatsas et al., (1998) Proc. Natl. Acad. Sci. USA 95, 6881-6) were maintained undifferentiated in gelatin-coated dishes in DMEM (GIBCO BRL, Grand Island, N.Y.) containing 15% fetal bovine serum (Atlanta biologicals, Norcross, Ga.), 2 mM L-glutamine, 100 units/ml penicilin, 100 μg/ml streptomycin, 25 mM Hepes (GIBCO BRL), 300 μM monothioglycerol (Sigma, St. Louis, Mo.), and 250 unit/ml recombinant mouse LIF (ESGRO, CHEMICON, Temecula, Calif.). To induce differentiation, ES cells were suspended in IMDM containing 2 mM L-glutamine, 100 units/ml penicillin, 100 μg/ml streptomycin (GIBCO BRL), 20% fetal bovine serum (Atlanta biologicals) and 300 μM monothioglycerol (Sigma). Cells were cultured for 2 days by the hanging-drop method (1×10^3 ES cells per 30 μl in each drop) (Metzger et al., (1994) J. Cell. Biol. 126, 701-11). EBs in hanging drops were transferred to suspension culture in 100-mm petri dishes and cultured for an additional 3 days. […]
For each gene, the DNA primers were originated from different exons to ensure that the PCR product represented the specific mRNA species and not genomic DNA. Relative quantitation of albumin gene was performed by ABIPRISM5700 sequence detection system and SYBR green PCR master mix (PE Biosystems, Foster City, Calif.). […]

In the case of hepatocyte growth factor [HGF], the “G6P expression (FIG. 5a)” value was “critical”.
